Source: US20260216180A1, “QUINOLINE DERIVATIVE COMPOUNDS OR PHARMACEUTICALLY ACCEPTABLE SALT THEREOF, PREPARATION METHOD THEREFOR AND USE THEREOF” (JIANGSU CAREPHAR PHARMACEUTICAL CO.,LTD., priority 2023, published 2026)
Where two headings read alike, the source gives them in different places.

Tests used:
[1] = target: T1, CYP2B6 (Homo sapiens, UniProt P20813); experiment: CYP enzyme inhibition, human liver microsomes, CYP2B6; assay type: in vitro ADME; settings: probe substrate Bupropion, read-out: IC50 CYP 2B6
T1 construct: Commercially available mixed human liver microsomes were used; from tissue; host or cells: pooled human liver microsomes
T1 sequence (P20813 1-491): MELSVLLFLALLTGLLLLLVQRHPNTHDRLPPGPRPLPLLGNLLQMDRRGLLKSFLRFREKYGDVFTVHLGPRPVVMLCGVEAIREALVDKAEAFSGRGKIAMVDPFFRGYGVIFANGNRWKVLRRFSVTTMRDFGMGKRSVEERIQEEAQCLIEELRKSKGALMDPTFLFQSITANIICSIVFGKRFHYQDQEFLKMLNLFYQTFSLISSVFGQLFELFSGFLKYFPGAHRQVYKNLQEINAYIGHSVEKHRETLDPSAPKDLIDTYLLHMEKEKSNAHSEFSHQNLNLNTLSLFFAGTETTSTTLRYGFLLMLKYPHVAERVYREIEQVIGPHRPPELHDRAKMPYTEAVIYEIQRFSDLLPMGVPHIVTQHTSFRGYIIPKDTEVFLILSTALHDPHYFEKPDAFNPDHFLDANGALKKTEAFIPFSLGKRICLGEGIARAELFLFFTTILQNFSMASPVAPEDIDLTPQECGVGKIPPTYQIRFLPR
Protocol: (§1) Commercially available mixed human liver microsomes were used, with the liver microsome concentrations of diclofenac, dextromethorphan, and midazolam being 0.1 mg/mL; and the liver microsome concentrations of phenacetin, bupropion, amodiaquine, mephenytoin, and testosterone being 0.2 mg/mL. Probe substrate, specific inhibitor and test compound (ABX464, compound 18) were diluted to the corresponding concentration of working solution for use. A mixed solution containing liver microsomes, MgCl2, substrate, […] inhibitor, and the test compound was prepared. After the incubation, 600 μL of ice-cold ACN working solution containing IS was added to terminate the reaction, and the mixture was centrifuged and used for LC-MS/MS detection. [table] At different concentrations of the test compound or positive inhibitor, the percentage of remaining activity is determined by the ratio of the amount of characteristic metabolites of the probe substrate generated to the corresponding amount generated in the absence of the test compound or positive inhibitor. […]

[2] = target: T2, CYP2C9 (Homo sapiens, UniProt P11712); experiment: CYP enzyme inhibition, human liver microsomes, CYP2C9; assay type: in vitro ADME; settings: probe substrate Diclofenac, read-out: IC50 CYP 2C9
T2 construct: Commercially available mixed human liver microsomes were used; from tissue; host or cells: pooled human liver microsomes
T2 sequence (P11712 whole entry): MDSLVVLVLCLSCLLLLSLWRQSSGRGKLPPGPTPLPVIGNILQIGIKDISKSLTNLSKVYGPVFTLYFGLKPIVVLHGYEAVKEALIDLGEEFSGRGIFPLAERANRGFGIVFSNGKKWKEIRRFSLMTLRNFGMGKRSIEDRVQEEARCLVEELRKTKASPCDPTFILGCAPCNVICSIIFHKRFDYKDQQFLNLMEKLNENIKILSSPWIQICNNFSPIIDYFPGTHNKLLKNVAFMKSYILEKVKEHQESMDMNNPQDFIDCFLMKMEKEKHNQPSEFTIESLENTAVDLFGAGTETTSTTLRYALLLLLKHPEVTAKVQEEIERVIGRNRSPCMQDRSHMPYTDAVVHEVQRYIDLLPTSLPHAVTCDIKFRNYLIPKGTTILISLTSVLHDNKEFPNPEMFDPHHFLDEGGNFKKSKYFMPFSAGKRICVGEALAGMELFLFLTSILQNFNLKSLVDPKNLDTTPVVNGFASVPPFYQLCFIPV
Protocol: as §1

[3] = target: T3, CYP3A4 (Homo sapiens, UniProt P08684); experiment: CYP enzyme inhibition, human liver microsomes, CYP3A4; assay type: in vitro ADME
T3 construct: Commercially available mixed human liver microsomes were used; from tissue; host or cells: pooled human liver microsomes
T3 sequence (P08684 whole entry): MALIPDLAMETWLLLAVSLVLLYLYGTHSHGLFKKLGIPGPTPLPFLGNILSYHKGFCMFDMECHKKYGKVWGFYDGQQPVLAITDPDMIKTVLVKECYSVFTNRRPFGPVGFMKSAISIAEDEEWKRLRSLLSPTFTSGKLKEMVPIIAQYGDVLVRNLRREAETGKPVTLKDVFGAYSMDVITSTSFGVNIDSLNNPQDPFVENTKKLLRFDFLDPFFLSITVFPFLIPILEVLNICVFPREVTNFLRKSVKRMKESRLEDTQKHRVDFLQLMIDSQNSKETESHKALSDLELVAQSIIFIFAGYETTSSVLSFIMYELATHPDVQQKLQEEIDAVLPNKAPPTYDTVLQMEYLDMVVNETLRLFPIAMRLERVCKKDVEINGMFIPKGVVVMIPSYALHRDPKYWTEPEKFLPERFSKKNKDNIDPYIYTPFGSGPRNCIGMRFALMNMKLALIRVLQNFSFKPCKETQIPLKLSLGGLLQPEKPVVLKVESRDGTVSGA
Protocol: (§2) Commercially available mixed human liver microsomes were used, with the liver microsome concentrations of diclofenac, dextromethorphan, and midazolam being 0.1 mg/mL; and the liver microsome concentrations of phenacetin, bupropion, amodiaquine, mephenytoin, and testosterone being 0.2 mg/mL. Probe substrate, specific inhibitor and test compound (ABX464, compound 18) were diluted to the corresponding concentration of working solution for use. A mixed solution containing liver microsomes, MgCl2, substrate, […] inhibitor, and the test compound was prepared. After the incubation, 600 μL of ice-cold ACN working solution containing IS was added to terminate the reaction, and the mixture was centrifuged and used for LC-MS/MS detection. [table] At different concentrations of the test compound or positive inhibitor, the percentage of remaining activity is determined by the ratio of the amount of characteristic metabolites of the probe substrate generated to the corresponding amount generated in the absence of the test compound or positive inhibitor. If a significant decrease in the amount of metabolite production is found at the highest concentration setting point, the half inhibitory concentration (IC50) will be calculated using the log(inhibitor) vs. response—Variable slope formula of GraphPad Prism software: Y=Bottom+(Top−Bottom)/(1+10^((Log IC50−X)*Hillslope)) • X: Log (test compound or positive inhibitor concentration); • Y: Remaining activity percentage; • Top and Bottom: refer to the theoretical maximum and minimum remaining activity percentages respectively; and • Hillslope: slope coefficient or slope. If there is no significant decrease in metabolite production at the highest concentration setting point (percentage of enzyme remaining activity […]), the half inhibitory concentration (IC50) cannot be accurately calculated, and the reported IC50 is greater than the highest concentration tested.

[4] = test system: TNF-α; experiment: Macrophage TNF-α secretion after LPS (ELISA); assay type: cell-based; settings: Bone marrow macrophage, compared to 0 μM, mouse bone marrow macrophages, 200 ng/ml LPS, 6 hours, read-out: Inhibition rate of TNFα at 10 μM concentration
Protocol: Pharmacological Activity Test: Regulatory Effect of Quinoline Derivatives on Macrophage IL-6 and TNF-α Secretion
Mouse bone marrow cells were isolated from the femur and tibia bone marrow of […] mice of 6-8 week old raised under SPF conditions and inoculated in 6-well plates at a density of 1.5*10^6 cells/well/2 mL. 50 ng/mL M-CSF was added to each well and the cells were cultured in a CO2 incubator for 3 days. On the third day, the culture medium was replaced with fresh medium containing 100 ng/mL M-CSF and the culture was continued for 3 days. On the 6th day, the supernatant was removed and the cells were washed once with DPBS. After adding 1 mL of DPBS, the macrophages were harvested using a cell scraper, centrifuged at 400 g for 10 min, and the supernatant was discarded. The cells were resuspended in fresh culture medium containing 50 ng/mL M-CSF, inoculated in a 96-well plate at a density of 2*10^4 cells/well/200 μL, and cultured in a CO2 incubator overnight. 0, 3, 5, […] of the test compound were added to each well (wherein well 0 contains 0.1% DMSO) respectively and incubate in a CO2 incubator for 1 hour. Then 200 ng/ml LPS was added and the cell supernatant was collected after 6 hours of co-culture. ELISA kits were used to detect the secretion levels of IL-6 and TNF-α.

[5] = target: T4, CYP2D6 (Homo sapiens, UniProt P10635); experiment: CYP enzyme inhibition, human liver microsomes, CYP2D6; assay type: in vitro ADME; settings: probe substrate Dextromethorphan, read-out: IC50 CYP 2D6
T4 construct: Commercially available mixed human liver microsomes were used; from tissue; host or cells: pooled human liver microsomes
T4 sequence (P10635 whole entry): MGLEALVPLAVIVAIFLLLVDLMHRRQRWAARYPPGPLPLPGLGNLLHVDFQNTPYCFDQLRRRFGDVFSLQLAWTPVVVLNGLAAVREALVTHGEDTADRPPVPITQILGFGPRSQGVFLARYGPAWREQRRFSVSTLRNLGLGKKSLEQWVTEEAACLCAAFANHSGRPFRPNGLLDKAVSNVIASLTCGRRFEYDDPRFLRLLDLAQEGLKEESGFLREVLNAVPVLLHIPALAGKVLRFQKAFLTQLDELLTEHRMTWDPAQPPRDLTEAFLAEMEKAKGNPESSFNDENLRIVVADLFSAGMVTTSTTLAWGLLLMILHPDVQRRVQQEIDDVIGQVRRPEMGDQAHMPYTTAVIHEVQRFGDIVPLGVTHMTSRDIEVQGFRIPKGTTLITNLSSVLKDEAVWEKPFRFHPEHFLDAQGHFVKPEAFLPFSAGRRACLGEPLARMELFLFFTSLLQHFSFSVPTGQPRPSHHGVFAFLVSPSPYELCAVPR
Protocol: as §1

[6] = target: T5, CYP1A2 (Homo sapiens, UniProt P05177); experiment: CYP enzyme inhibition, human liver microsomes, CYP1A2; assay type: in vitro ADME; settings: probe substrate Phenacetin; for IC50: read-out: IC50 CYP 1A2
T5 construct: Commercially available mixed human liver microsomes were used; from tissue; host or cells: pooled human liver microsomes
T5 sequence (P05177 1-516): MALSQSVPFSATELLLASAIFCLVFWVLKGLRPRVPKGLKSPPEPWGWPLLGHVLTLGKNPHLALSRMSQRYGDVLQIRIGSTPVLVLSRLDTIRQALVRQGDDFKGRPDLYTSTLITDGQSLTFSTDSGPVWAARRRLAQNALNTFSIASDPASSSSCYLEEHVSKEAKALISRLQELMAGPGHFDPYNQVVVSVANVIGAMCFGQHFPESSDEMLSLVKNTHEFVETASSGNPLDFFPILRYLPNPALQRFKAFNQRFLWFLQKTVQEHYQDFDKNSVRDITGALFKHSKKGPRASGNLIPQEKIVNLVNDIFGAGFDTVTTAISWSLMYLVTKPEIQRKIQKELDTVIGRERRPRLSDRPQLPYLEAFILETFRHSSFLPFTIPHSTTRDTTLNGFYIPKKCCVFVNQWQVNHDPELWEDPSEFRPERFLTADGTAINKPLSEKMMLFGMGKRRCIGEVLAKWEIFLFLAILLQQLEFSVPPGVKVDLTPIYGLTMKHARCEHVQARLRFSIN
Protocol: as §2

[7] = target: T6, CYP2C19 (Homo sapiens, UniProt P33261); experiment: CYP enzyme inhibition, human liver microsomes, CYP2C19; assay type: in vitro ADME; settings: probe substrate S-Mephenytoin, read-out: IC50 CYP 2C19
T6 construct: Commercially available mixed human liver microsomes were used; from tissue; host or cells: pooled human liver microsomes
T6 sequence (P33261 whole entry): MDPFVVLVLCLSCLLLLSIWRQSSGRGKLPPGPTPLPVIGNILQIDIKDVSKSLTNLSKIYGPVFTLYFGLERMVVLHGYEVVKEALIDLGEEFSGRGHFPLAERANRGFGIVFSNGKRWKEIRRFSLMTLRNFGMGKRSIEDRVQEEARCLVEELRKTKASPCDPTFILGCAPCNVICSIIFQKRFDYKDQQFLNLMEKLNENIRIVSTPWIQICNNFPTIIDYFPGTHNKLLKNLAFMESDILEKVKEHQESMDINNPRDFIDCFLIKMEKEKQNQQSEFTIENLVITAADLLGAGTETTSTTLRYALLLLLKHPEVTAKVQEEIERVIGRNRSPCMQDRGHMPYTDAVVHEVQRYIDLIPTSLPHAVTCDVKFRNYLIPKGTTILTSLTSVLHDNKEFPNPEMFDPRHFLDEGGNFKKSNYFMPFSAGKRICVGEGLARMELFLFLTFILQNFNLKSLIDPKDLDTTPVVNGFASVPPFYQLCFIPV
Protocol: as §1

[8] = probe substrate Midazolam, read-out: IC50 CYP 3A4-Midazolam
[9] = probe substrate Testosterone, read-out: IC50 CYP 3A4-Testosterone

SMILES | IC50 [1] | IC50 [2] | IC50 [3, 8] | IC50 [3, 9] | inhibition at 10 µM [4] | IC50 [5] | IC50 [6] | IC50 [7] | IC50 CYP 1A2 [6]
FC(F)(F)Oc1ccc(Nc2ccc3cccc(Cl)c3n2)cc1 [ABX464, reference compound] | 86.7 µM | 15.1 µM | 73 µM | > 100 µM | 80% | 17.2 µM | 0.097 µM | 4.92 µM | 
Fc1cc(Cl)c2nc(Nc3ccc(C4(C(F)(F)F)CC4)cc3)ccc2c1 [Compound 18, 8-chloro-6-fluoro-N-(4-(1-(trifluoromethyl)cyclopropyl)phenyl)quinolin-2-amine] | > 100 µM | 20.2 µM | > 100 µM | > 100 µM | 94% | 48 µM | 21.6 µM | 5.69 µM | significantly superior to ABX464
